Data set [1] deals with Micrococcus luteus CBM. The data set can be described thus: MIC, micro-dilution method. It is filed as cell-based. To be noted: M. luteus CBM, CLSI M7-A7, cation-adjusted MHB. The text has this:
(§1) S. aureus CH-91 was kindly provided by S. Takeuchi from Fukui Prefectural University, Japan (Takeuchi et al. [1999]). The strain has been deposited in the DSMZ collection under the number DSM 26258. Bacillus licheniformis NCTC 7224, Bacillus subtilis ATCC 6633, Lactococcus lactis subsp. lactis LOCK 0869, Micrococcus luteus strains DSMZ 20030 and CBM (clinical isolate), Sarcina lutea ATCC 9341, S. aureus strains ATCC 25923, M-122 (Polakowska et al. [2012]), Newman and RN4220, S. epidermidis ATCC 35347, Staphylococcus intermedius ATCC 29666, Staphylococcus pseudintermedius LMG 22219 (Devriese et al. [2005]), Staphylococcus saprophyticus ATCC 49453, Staphylococcus xylosus strains isolated from the skin of healthy chickens, Streptococcus mutans ATCC 25175, Streptococcus pneumoniae ATCC 49619, Escherichia coli K12 ATCC 10798, Klebsiella pneumoniae, Serratia marcescens, and Sphingomonas sp. AMC 3962 (Dziga et al. [2012]) were obtained from the collections of The Faculty of Biochemistry, Biophysics and Biotechnology, Jagiellonian University, Krakow, Poland. […]
(§2) The bactericidal activity of BacCH91 was determined using the micro-dilution method in compliance with Clinical and Laboratory Standards Institute guidelines M7-A7 (CLSI [2006]). […] After overnight incubation at 37 °C, the optical density (OD) at 600 nm was measured. […]
(In general: In broth dilution the organism is exposed to a series of concentrations in liquid medium.)

Data set [2] relates to Micrococcus luteus DSMZ 20030. The data set can be described thus: MIC, micro-dilution method. Format: cell-based. Conditions: M. luteus DSMZ 20030, as printed in the text, CLSI M7-A7, cation-adjusted MHB.
Source text: as §1, §2

The test system of data set [3] is staphylococcal extracellular peptidases (aureolysin; staphopains A, B, and C; V8 peptidase). Conditions: 30 μM, pH 6.4 or pH 7.5/7.8, enzyme/bacteriocin 1:20 by weight, 1 h at 37 °C; radial diffusion assay and HPLC; triplicate. Here is the method:
(§3) For pH, temperature, and protease resistance assays, the residual activity of BacCH91 was determined using the radial diffusion assay (Lemos Miguel et al. [2008]). In brief, plates were prepared containing 200× diluted overnight culture of S. lutea ATCC 9341 in TSB agar (1 %, w/v). Wells (2.4 mm diameter) were cut in the agar and filled with 10 μl of the BacCH91 preparation for testing. Following overnight incubation at 37 °C, the residual activity was measured as the diameter of inhibition zones.
(§4) We evaluated the susceptibility of BacCH91 to proteolysis by aureolysin; staphopains A, B, and C; V8 peptidase (Biocentrum); bovine alpha-chymotrypsin and TPCK-treated trypsin (Sigma); human elastase and cathepsin G (Biocentrum); pepsin from porcine gastric mucosa (Sigma); and proteinase K (A&A Biotechnology). […] The residual activity was determined with the radial diffusion assay using S. lutea as an indicator strain, and the bacteriocin molecule integrity was assessed using HPLC. […]

Data set [4] relates to staphopain C (StpC). Conditions: 30 μM, 100 mM bis-Tris pH 6.4 or Tris–HCl pH 7.5 with 5 mM cysteine hydrochloride and 5 mM EDTA, 1:20 by weight, 1 h at 37 °C; radial diffusion assay and HPLC. Here is the method:
as §3, §4

Data set [5] is classed as physicochemical. Conditions: 30 μM, radial diffusion assay, S. lutea. Here is the method:
To test the pH stability of BacCH91, a water solution of the bacteriocin (final concentration, 30 μM) was evaporated in a vacuum centrifuge and re-dissolved in (a) 100 mM sodium citrate pH 3.0, 4.0, 5.0, and 6.0; […] The solutions were incubated for 3 h at RT, and the residual activity of the bacteriocin was determined using the radial diffusion assay. The temperature stability of BacCH91 (30 μM final concentration) was determined in 50 mM Tris–HCl pH 7.4, 0.15 M NaCl and 50 mM bis-Tris pH 6.4, 0.15 M NaCl. The solutions were incubated for 1, 6, and 24 h at 37, 60, 80, and 99 °C. […] All of the above experiments were performed in triplicate. The final results are presented as means ± SD.

Data set [6] relates to Gram-negative strains. The data set can be described thus: MIC, micro-dilution method, Gram-negative strains as a group. It is filed as cell-based. To be noted: highest (maximal) concentration tested 100 μM, CLSI M7-A7, cation-adjusted MHB.
Source text: as §1, §2

Data set [7] concerns the target T1, proteinase K (Parengyodontium album, UniProt P06873).
T1 construct: purchased A&A Biotechnology
The data set can be described thus: Susceptibility to proteolysis, proteinase K. It is filed as in vitro ADME. To be noted: 30 μM, enzyme/bacteriocin 1:20 by weight, 1 h at 37 °C; radial diffusion assay and HPLC. Here is the method: All of the above experiments were performed in triplicate. The final results are presented as means ± SD.

In data set [8] the test system is Staphylococcus intermedius ATCC 29663. Format: cell-based.
Data set [9] deals with Pseudomonas aeruginosa ATCC 27853. Format: cell-based.

Values after ≈ are worked out from the molar mass of the structure shown. “Also recorded” adds a separate entry of the source.

T1 sequence (P06873 106-384): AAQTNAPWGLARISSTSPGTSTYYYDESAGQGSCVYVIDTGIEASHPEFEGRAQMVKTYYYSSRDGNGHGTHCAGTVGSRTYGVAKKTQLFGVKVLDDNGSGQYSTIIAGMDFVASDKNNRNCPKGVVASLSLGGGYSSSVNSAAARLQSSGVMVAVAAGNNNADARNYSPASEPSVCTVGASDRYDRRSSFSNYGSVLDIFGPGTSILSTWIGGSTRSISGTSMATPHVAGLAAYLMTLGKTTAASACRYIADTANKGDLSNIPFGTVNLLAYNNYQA

Usually MIC stands for the least concentration at which growth counts as inhibited. Higher therefore signals a need for much substance. Take `C/C=C(\NC(=O)[C@H](CCCCN)NC(=O)CNC(=O)[C@@H]1CS[C@@H](C)[C@@H](NC(=O)[C@@H]2CSC[C@@H](NC(=O)/C(=C/C)NC(=O)[C@@H](N)[C@@H](C)CC)C(=O)N[C@@H](Cc3ccccc3)C(=O)N[C@@H]([C@@H](C)CC)C(=O)NCC(=O)N2)C(=O)N2CCC[C@H]2C(=O)NCC(=O)N1)C(=O)NCC(=O)N[C@@H]1CSC[C@@H]2NC(=O)[C@H](Cc3ccccc3)NC(=O)[C@@H](CS/C=C\NC2=O)NC(=O)[C@H](CC(N)=O)NC(=O)[C@H](Cc2ccccc2)NC1=O` [BacCH91]: the MIC is 0.04 µM (≈ 0.0831 µg/mL) in [1], 0.0025 µM (≈ 0.00519 µg/mL) in data set [2], 1.6 µM (≈ 3.32 µg/mL) in data set [8] and >100 µM in data set [9]. In data set [3], the “effect of staphylococcal peptidases on BacCH91” value is “not affected”. Further, the “effect of StpC on BacCH91” value in data set [4] is “not affected”. Further, in data set [5] (50 mM Tris–HCl pH 7.4, 0.15 M NaCl and 50 mM bis-Tris pH 6.4, 0.15 M NaCl, 37, 60, 80 °C, 1 h, triplicate), the “residual activity after 1 h at temperatures up to 80 °C” value is reported as “maintained its activity”. The “residual activity after several hours at temperatures higher than 60 °C” value in data set [5] (pH 6.4 and pH 7.4 buffers with 0.15 M NaCl, 6 and 24 h time points, triplicate) is listed as “complete inactivation”. The “activity retained during incubation for 1 h at 80 °C” value in data set [5] (pH 6.4 and pH 7.4 buffers with 0.15 M NaCl, 80 °C, 1 h) is given as ~100%. In addition, the “residual activity after short incubation at 99 °C” value in data set [5] (pH 6.4 and pH 7.4 buffers with 0.15 M NaCl, 99 °C, triplicate) is “complete inactivation”. Further, the “susceptibility of Gram-negative strains to BacCH91” value in data set [6] was “ineffective; also recorded: None of the Gram-negative species assayed were susceptible”. In addition, in data set [7], the “effect of proteinase K on BacCH91” value is “unaffected”.

For the origin of these results see PMC3724985, “Isolation, biochemical characterization, and cloning of a bacteriocin from the poultry-associated Staphylococcus aureus strain CH-91” (Applied Microbiology and Biotechnology, 2012).
